# Laboratory results reported in the METLIN SMRT retention time set (Domingo-Almenara et al. 2019).
# Test: gradient 5% acetonitrile 3 min, to 50% in 2 min, to 85% in 15 min, held 3 min, 100 µL/min
# Conditions: column: Zorbax Extend-C18 2.1 x 50 mm; eluents: water / acetonitrile, 0.1% formic acid
# How it was run: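 Values are retention times taken from adduct peaks that software picked and an analyst inspected. The pure standards were run as mixtures of ~100 molecules on HPLC linked to a quadrupole time-of-flight mass spectrometer, in positive and negative ionization mode. A Zorbax Extend-C18 column (2.1 × 50 mm, 1.8 μm) was used at 100 μL/min with water and acetonitrile, each including 0.1% formic acid.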
row,RP-LC retention time,SMILES
1,1030 s,Cc1noc(-c2ccc(NC(=O)COc3ccc(Cl)cc3Cl)cc2)n1
2,685 s,O=C(c1nc(Nc2ccc(F)cc2)c2ccccc2n1)N1CCOCC1
3,676 s,COc1ccc(C2CC(=O)c3c(C)nc(N4CCN(c5ccccn5)CC4)nc3C2)cc1OC (stereo not drawn)
4,1250 s,Fc1ccc(C2Cn3nnc(-c4nc(-c5ccc(OC(F)(F)F)cc5)no4)c3CO2)cc1 (stereo not drawn)
5,680 s,Fc1ccccc1CSc1ccc2nnc(-c3cccnc3)n2n1
6,730 s,O=C(NCc1ccc(F)cc1)N1CCC(n2c(-c3ccco3)nc3cccnc32)C1 (stereo not drawn)
7,806 s,Cc1ccc(S(=O)(=O)N2CCC3(CC2)CC(C)(O)CCO3)cc1 (stereo not drawn)
8,888 s,CCCNC(=O)N1CCC2(CC1)Nc1cc(F)ccc1-n1cccc12
9,801 s,CCC(=O)Nc1nc(-c2ccc3c(c2)N(C)C(=O)C(C)O3)cs1 (stereo not drawn)
10,882 s,CCOC(=O)c1c(C)c(C(=O)Nc2cccc(C)c2C)c(C)n1C
11,755 s,CCCCNC(=O)Cc1nnc(-c2ccc(C)cc2)o1
12,693 s,CCC(=O)N1CCN(C(=O)c2ccccc2)CC1
13,944 s,c1cc2c(cc1-c1nnc(C3CCCC3)o1)OCO2
14,813 s,CC(=O)n1nc(-c2ccc(C)c(C)c2)nc1N
15,654 s,CCCN1CCN(c2cc(C(=O)O)c3cc(NC(=O)c4cccc(Cl)c4)ccc3n2)CC1
16,574 s,Cc1cc(CN2CCC(CNC(=O)c3ccc(S(=O)(=O)N(C)C)cc3)CC2)c(C)o1
17,937 s,COc1ccc(-c2nc(C3CC(=O)N(c4ccc(C)cc4)C3)no2)cc1OC (stereo not drawn)
18,854 s,COC(=O)c1cn(Cc2cccc(C)c2)c2nc(C)ccc2c1=O
19,890 s,CC1=C(c2ccc(C)cc2)S(=O)(=O)N=C1N1CCCN(C(=O)NC2CCCCC2)CC1
20,878 s,c1ccc(CNc2nnc(-c3nc(C4CC4)no3)c3ccccc23)cc1
21,759 s,CCOC(=O)c1ccc(NS(=O)(=O)c2cc3n(c2)CCCN(CC)C3=O)cc1
22,730 s,Cc1ccccc1S(=O)(=O)N1CCC2(CC1)NCCN=C2NCc1cc(F)cc(F)c1

row,RP-LC retention time,SMILES
1,616 s,CCOC(=O)c1noc2ncnc(Nc3cccc(F)c3)c12
2,796 s,O=C1CC(c2ccco2)Sc2nc3ccccc3n21 (stereo not drawn)
3,712 s,Cc1ccc(C)c(NC(=O)N2CCC(c3nc(C(=O)N4CCOCC4)c(C)o3)CC2)c1
4,626 s,COc1ccc(CC(=O)NC2CCN(c3nnc4ccccn34)CC2)cc1
5,720 s,CCCn1cnc2cc(CNC(=O)c3cc4cc(Cl)ccc4[nH]3)ccc21
6,672 s,O=C(Cn1cnc2nc(N3CCCC(C(=O)NC4CC4)C3)sc2c1=O)Nc1ccc(F)cc1 (stereo not drawn)
7,652 s,Cc1ccc2c(C(=O)N3CCC(C)CC3)cc(NC(=O)C3CCC3)cc2n1
8,974 s,CCOC(=O)c1sc(NC(=O)c2cc3ccccc3o2)nc1C
9,723 s,Cc1cc(C)c(NC(=O)Cn2cnc3nc(N4CCCC(C(=O)NC5CC5)C4)sc3c2=O)c(C)c1 (stereo not drawn)
10,883 s,CN(C)Cc1cc(C(F)(F)F)ccc1C(O)(c1ccccc1)c1ccccc1
11,649 s,O=C(NC1CCCCC1)C1CCN(c2cnc(N3CCCC3)nc2)CC1
12,891 s,Cn1nc(-c2nnc(-c3ccc(F)cc3)o2)c2c1CCN(S(=O)(=O)c1cccc(C#N)c1)C2
13,737 s,Cc1nc(-c2ccccc2)sc1C(=O)Nc1c(C)nc2ccc(Cl)cn2c1=O
14,910 s,O=C(C1CCN(c2nc3ccc(-c4ccccc4)nc3s2)CC1)N1CCCC1
15,819 s,Cc1noc2nc(CCC(=O)NCc3ccc(Cl)cc3)nc(N3CCCC3)c12
16,660 s,Cc1cc(N2CCN(S(=O)(=O)c3cc(F)ccc3F)CC2)nc(N2CCOCC2)n1
17,881 s,Cc1ccc2c(c1)NC1(CCN(S(=O)(=O)c3ccccc3F)CC1)c1cccn1-2
18,1200 s,CCCN(CCC)S(=O)(=O)c1ccc(C)cc1
19,1070 s,CSc1cccc(N2C(=O)C3N=NN(Cc4nc(-c5ccc(Cl)cc5)no4)C3C2=O)c1 (stereo not drawn)
20,983 s,Cc1ccc(NC(=O)CC(C)S(=O)(=O)c2ccc3c(c2)CCN3C(=O)C2CC2)cc1N(C)C (stereo not drawn)
21,839 s,CCOc1cc(C(=O)NC2CCN(c3cc(-c4cccs4)[nH]n3)C2)cc(OCC)c1OCC (stereo not drawn)
22,840 s,Cc1noc(-c2cc(=O)n(CC(=O)Nc3ccccc3)c3ccccc23)n1

row,RP-LC retention time,SMILES
1,786 s,Cc1nc(NC(=O)Cn2nc3c(cc2=O)CCCCC3)sc1C
2,583 s,CC1CCCCN1C(=O)Cn1c(CCO)nc2ccccc21 (stereo not drawn)
3,839 s,Cc1cc(NC(=O)C2CCN(C(=O)c3ncn4c3COC(c3ccc(F)cc3)C4)CC2)ccc1F (stereo not drawn)
4,1090 s,COc1cc(-c2nc3sc4c(c3c(=O)o2)CCC4)cc(OC)c1OC
5,645 s,Cc1nn(CC(=O)NCCN2CCCCC2C)c(=O)c2nc(-c3ccccc3)sc12 (stereo not drawn)
6,1250 s,O=C(Nc1ccccc1F)c1c(O)c2cccnc2n(-c2cccc(F)c2)c1=O
7,632 s,CCOC(=O)N1CCN(C(=O)CSc2ccc(-c3sc(C)nc3C)nn2)CC1
8,727 s,O=c1cc(CSc2nnc(-c3ccc4c(c3)OCO4)o2)nc2sccn12
9,705 s,O=C(COc1ccc(F)cc1)Nc1ccc2c(c1)CCC(=O)N2
10,805 s,O=S(=O)(c1cccc(-c2cn3cc(Cl)ccc3n2)c1)N1CCCC1
11,843 s,CCN1C(=O)c2ccccc2Oc2ccc(C(=O)NCc3ccco3)cc21
12,845 s,CCc1ccccc1NC(=O)Cn1c(C)nc2onc(C)c2c1=O
13,754 s,COC(=O)c1ccc2c(=O)n(-c3ccc(Cl)cc3)c(N3CCC(C(N)=O)CC3)nc2c1
14,810 s,CCOC(=O)c1oc2ccc(S(=O)(=O)NCC3Cn4cccc4C(=O)N3C)cc2c1C (stereo not drawn)
15,573 s,COc1cccc(CN2CCn3c(nnc3[C@@H]3C[C@@H](O)CN3Cc3cccnc3)C2)c1OC
16,1030 s,COc1ccc(N2CCN(c3cc(SCC(=O)Nc4cc(OC)ccc4OC)ncn3)CC2)cc1
17,823 s,CCOc1ccccc1CNC(=O)c1c(C)sc2ccn(C)c(=O)c12
18,818 s,CCCCOc1ccc(S(=O)(=O)N2CCN(c3nc(C)cc(N4CCOCC4)n3)CC2)cc1
19,736 s,COc1ccccc1OCC(O)Cn1c(C2CC(=O)N(c3ccccc3)C2)nc2ccccc21 (stereo not drawn)
20,895 s,COc1cc(NC(=O)N2CCC(n3c(C(F)(F)F)nc4cccnc43)CC2)cc(OC)c1
21,718 s,COC(=O)C(C)NC(=O)NC1CCN(C2=NS(=O)(=O)C(c3ccccc3)=C2C)CC1 (stereo not drawn)
22,841 s,COc1ccc(-c2cn3c(CC(=O)N(Cc4ccco4)C4CCCC4)csc3n2)cc1OC

row,RP-LC retention time,SMILES
1,575 s,Cc1nnc2c(NC(=O)c3ccncc3)cccn12
2,740 s,CCCc1noc(-c2cccnc2N2CCCN(Cc3ccccc3C)CC2)n1
3,726 s,COc1cccc(NC(=O)N2CCN(Cc3nc4ccc(Cl)cc4o3)CC2)c1
4,823 s,Cc1ccc(CNC(=O)c2cc3n(n2)CC(C)(C(=O)NCc2ccc(C)cc2)N(C)C3=O)cc1 (stereo not drawn)
5,873 s,CCc1onc(C)c1C1CCCN1C(=O)Nc1ccc(Cl)cc1 (stereo not drawn)
6,646 s,COc1ccc(NC(=O)CCC2CCN(c3cc(NC4CC4)ncn3)CC2)cc1OC
7,722 s,CCn1ncc(NC(=O)c2ccc(OC)c(OC)c2)c(N2CCOCC2)c1=O
8,591 s,CC(C)NC(=O)C1CCC(=O)N1C1CCN(C(=O)C2CCCCC2)CC1 (stereo not drawn)
9,784 s,COc1ccc(N2CCN(C(=O)CN3CCN(Cc4cccc(Cl)c4)C3=O)CC2)cc1
10,1160 s,CCOc1ccc(-c2cc3c(=O)n(Cc4nc(-c5ccc(F)cc5)no4)ncn3n2)cc1
11,644 s,O=C(NCc1cccs1)c1ccc2ncnc(N3CCCCC3)c2c1
12,746 s,CC(C)CC(=O)Nc1ccc2nc(N3CCN(c4ccc(Cl)cc4)CC3)cc(C(=O)O)c2c1
13,913 s,COc1cc(NC(=O)Nc2nccn(-c3cc(C)cc(C)c3)c2=O)cc(OC)c1
14,664 s,CCCCCN(CC(=O)N1CCNCC1)C(=O)c1cccc(Br)c1
15,859 s,Cc1c(C(=O)N2CCOCC2)sc2nc(-c3cccc(F)c3)c(NC3CCCC3)n12
16,586 s,CCn1c(CCNC(=O)c2cccc(N(C)C)c2)nc2cccnc21
17,674 s,O=C(C1CCN(S(=O)(=O)N2CCOCC2)CC1)N1CCC(c2nc(C3CCOCC3)no2)CC1
18,785 s,CC(=O)Nc1ccc(C(=O)NCc2ccc(Br)cc2)c(N2CCOCC2)c1
19,604 s,COc1ccc(CC(=O)Nc2ccc(-c3cn4ccsc4n3)cc2)cc1OC
20,628 s,CC1CCCN(c2ccc(-c3noc(CN4CCN(C(C)C)CC4)n3)cn2)C1 (stereo not drawn)
21,822 s,O=C(Cn1cnc2c(nnn2Cc2ccc(F)cc2)c1=O)N1CCCc2ccccc21

row,SMILES,RP-LC retention time
1,CCOc1ccc(C(=O)N2CCC3(C2)C(=O)Nc2ccc(OC)cc23)cc1 (stereo not drawn),737 s
